Results taken from patent US9139581B2 (PORTOLA PHARMACEUTICALS, INC., priority 2008, dated 2015).

biological target: T1, full length active recombinant SYK enzyme (Homo sapiens, UniProt P43405); experiment: Inhibition of Syk tyrosine phosphorylation activity (LANCE TR-FRET); format: biochemical; settings: Table 3; 1 nM SYK, 100 μM ATP; read-out: Syk IC50 code
T1 construct: full length active recombinant SYK enzyme (Millipore, Calif.); purchased Millipore
Description: The in vitro and in vivo human syk activities of the inventive compounds can be determined by various procedures known in the art, such as a test for their ability to inhibit the activity of human plasma syk. […] Inhibition of Syk Tyrosine Phosphorylation Activity Potency of candidate molecules for inhibiting syk tyrosine phosphorylation activity is assessed by measuring the ability of a test compound to inhibit syk-mediated tyrosine phosphorylation of a syk-specific substrate. SYK tyrosine phosphorylation activity is measured using the LANCETM Technology developed by Perkin Elmer Life and Analytical Sciences (Boston, Mass.). LANCETM refers to homogeneous time resolved fluorometry applications using techniques such as time-resolved fluorescence resonance energy transfer assay (TR-FRET) (see generally for procedures in Perkin Elmer Application Note-How to Optimize a Tyrosine Kinase Assay Using Time Resolved Fluorescence-Based LANCE Detection, wwww.perkinelmer.com/lifesciences). The assay principle involves detection of a phosphorylated substrate using energy transfer from a phosphospecific europium-labeled antibody to streptavidin-allophycocyanin as an acceptor. To test the ability of candidate molecules to inhibit SYK tyrosine phosphorylation activity, molecules are reconstituted in 30% DMSO and serially diluted 1:3 with the final dilution containing DMSO in the absence of the candidate molecule. The final DMSO concentration in the assay is 3%. Kinase assays are performed as a two part reaction. The first reaction is a kinase reaction and which comprises of a candidate molecule, full length active recombinant SYK enzyme (Millipore, Calif.) and biotin-labeled SYK-specific substrate biotin-[…]-OH. The second reaction involves termination of the kinase reaction and the simultaneous addition of the detection reagents-europium-labeled anti-phosphotyrosine reagent (Eu-W1024-PY100, Perkin Elmer, Boston, Mass.) and Streptavidin-Allophycocyanin detection reagent (SA-APC, Prozyme, Calif.). The kinase reaction is performed in a black U-bottom 96-well microtitre plate. […] The reaction is allowed to proceed for 1 hour at room temperature. […] The detection reagents are added to the reaction mixture at the following dilutions-1:500 for Eu-W1024-PY100 and 1:250 for SA-APC. The kinase reaction is terminated by the addition of 50 μL quench buffer containing the detection reagents. The detection is allowed to proceed for 1 hr at room temperature. Detection of the phosphorlated substrate in the absence and presence of inhibitors is measured in the TR-FRET instrument, Analyst HT ([…], Sunnyvale, Calif.) and the condition for measurements are set up using CriterionHost Release 2.0 ([…], Sunnyvale, Calif.). […] IC50s were derived by non-linear regression analysis.

SMILES	IC50 [nM]
CN1C(=O)CCc2cc(Nc3nc(NCc4ccccc4)c4c(-c5ccncc5)c[nH]c4n3)ccc21 [Example 114, 6-(4-(benzylamino)-5-(pyridin-4-yl)-7H-pyrrolo[2,3-d]pyrimidin-2-ylamino)-1-methyl-3,4-dihydroquinolin-2(1H)-one]	100 to 1000
CC(=O)N(C)c1ccc(Nc2nc(NC3CC3)c3c(-c4ccncc4)c[nH]c3n2)cc1 [Example 47, N-(4-(4-(cyclopropylamino)-5-(pyridin-4-yl)-7H-pyrrolo[2,3-d]pyrimidin-2-ylamino)phenyl)-N-methylacetamide]	10 to 100
NC(=O)CNS(=O)(=O)c1ccc(Nc2nc(NC3CCC3)c3cc[nH]c3n2)cc1 [Example 54, 2-(4-(4-(cyclobutylamino)-7H-pyrrolo[2,3-d]pyrimidin-2-ylamino)phenylsulfonamido)acetamide]	10 to 100
NC(=O)c1ccc(Nc2nc(NC3CC3)c3c(-c4ccncc4)c[nH]c3n2)cc1 [Example 101, 4-(4-(cyclopropylamino)-5-(pyridin-4-yl)-7H-pyrrolo[2,3-d]pyrimidin-2-ylamino)benzamide]	10 to 100
CC(=O)N1CCN(c2ccc(Nc3nc(NC4CC4)c4c(C#N)c[nH]c4n3)cc2)CC1 [Example 107, 2-(4-(4-acetylpiperazin-1-yl)phenylamino)-4-(cyclopropylamino)-7H-pyrrolo[2,3-d]pyrimidine-5-carbonitrile]	10 to 100
NC(=O)c1ccc(Nc2ncc(F)c(N[C@H]3CC[C@@H](N)CC3)n2)cc1 [Example 141, 4-(4-((1s,4s)-4-aminocyclohexylamino)-5-fluoropyrimidin-2-ylamino)benzamide]	100 to 1000
CN(C(=O)CCO)c1ccc(Nc2nc(NC3CC3)c3cc[nH]c3n2)cc1 [Example 87, N-(4-(4-(cyclopropylamino)-7H-pyrrolo[2,3-d]pyrimidin-2-ylamino)phenyl)-3-hydroxy-N-methypropanamide]	10 to 100
Clc1c[nH]c2nc(Nc3ccc4cn[nH]c4c3)nc(NC3CCC3)c12 [Example 50, 5-chloro-N4-cyclobutyl-N2-(1H-indazol-6-yl)-7H-pyrrolo[2,3-d]pyrimidine-2,4-diamine]	1 to 10
CC(=O)N(C)c1ccc(Nc2nc(NCCCCCN)c3cc[nH]c3n2)cc1 [Example 65, N-(4-(4-(5-aminopentylamino)-7H-pyrrolo[2,3-d-]pyrimidin-2-ylamino)phenyl)-N-methylacetamide]	100 to 1000
NC(=O)CC1CCN(c2nc(Nc3ccc4c(c3)CCC(=O)N4)nc3[nH]ccc23)CC1 [Example 121, 2-(1-(2-(2-oxo-1,2,3,4-tetrahydroquinolin-6-ylamino)-7H-pyrrolo[2,3-d]pyrimidin-4-yl)piperidin-4-yl)acetamide]	100 to 1000
COCCNc1nc(Nc2ccc3cn[nH]c3c2)nc2[nH]ccc12 [Example 89, N^2-(1H-indazol-6-ylamino)-N^4-(2-methoxyethyl)-7H-pyrrolo[2,3-d]pyrimidine-2,4-diamine]	100 to 1000
CC(=O)N(C)c1ccc(Nc2nc(NCCCCN)c3cc[nH]c3n2)cc1 [Example 62, N-(4-(4-(4-aminobutylamino)-7H-pyrrolo[2,3-d]pyrimidin-2-ylamino)phenyl)-N-methylacetamide]	10 to 100
NC(=O)CNc1nc(Nc2ccc3cn[nH]c3c2)nc2[nH]ccc12 [Example 83, 2-(2-(1H-indazol-6-ylamino)-7H-pyrrolo[2,3-d]pyrimidin-4-ylamino)acetamide]	100 to 1000
CC(C)(C)OC(=O)N1CCC(Nc2nc(Nc3ccc4cn[nH]c4c3)nc3[nH]ccc23)CC1 [Example 57, tert-butyl 4-(2-(1H-indazol-6-ylamino)-7H-pyrrolo[2,3-d]pyrimidin-4-ylamino)piperidine-1-carboxylate]	> 1000
N[C@H]1CC[C@@H](Nc2nc(Nc3ccc4c(c3)CCC(=O)N4)ncc2F)CC1 [Example 140, 6-(4-((1s,4s)-4-aminocyclohexylamino)-5-fluoropyrimidin-2-ylamino)-3,4-dihydroquinolin-2(1H)-one]	100 to 1000
NCC1CCN(c2nc(Nc3ccc4c(c3)CCC(=O)N4)ncc2-c2ccncc2)CC1 [Example 138, 6-(4-(4-(aminomethyl)piperidin-1-yl)-5-(pyridin-4-yl)pyrimidin-2-ylamino)-3,4-dihydroquinolin-2(1H)-one]	> 1000
CN(C)CC(=O)N(C)c1ccc(Nc2nc(NC3CCC3)c3cc[nH]c3n2)cc1 [Example 84, N-(4-(4-(cyclobutylamino)-7H-pyrrolo[2,3-d]pyrimidin-2-ylamino)phenyl)-2-(dimethlamino)-N-methylacetamide]	100 to 1000
CC(=O)N1CCN(c2ccc(Nc3ncc(F)c(N4CCC(CC(N)=O)CC4)n3)cc2)CC1 [Example 126, 2-(1-(2-(4-(4-acetylpiperazin-1-yl)phenylamino)-5-fluoropyrimidin-4-yl)piperidin-4-yl)acetamide]	100 to 1000
N#CCC(=O)N1CCC(Nc2nc(Nc3ccc(C(N)=O)cc3)nc3[nH]ccc23)CC1 [Example 109, 4-(4-(1-(2-cyanoacetyl)piperidin-4-ylamino)-7H-pyrrolo[2,3-d]pyrimidin-2-ylamino)benzamide]	> 1000
O=C1CCc2cc(Nc3nc(NC4CC4)c4c(-c5ccncc5)c[nH]c4n3)ccc2N1 [Example 48, 6-(4-(cyclopropylamino)-5-(pyridin-4-yl)-7H-pyrrolo[2,3-d]pyrimidin-2-ylamino)-3,4-dihydroquinolin-2(1H)-one]	10 to 100
NCCOCCNc1nc(Nc2ccc3cn[nH]c3c2)nc2[nH]ccc12 [Example 92, N^4-(2-2-(aminoethoxy)ethyl)-N^2-(1H-indazol-6-ylamino)-7H-pyrrolo[2,3-d]pyrimidine-2,4-diamine]	10 to 100
CS(=O)(=O)Cc1ccc(Nc2nc(NC3CCC3)c3cc[nH]c3n2)cc1 [Example 76]	100 to 1000
COCCNc1nc(Nc2ccc(N3CCN(C(C)=O)CC3)cc2)nc2[nH]ccc12 [Example 90, 1-(4-(4-(4-(2-methoxyethylamino)-7H-pyrrolo[2,3-d]pyrimidin-2-ylamino)phenyl)piperazin-1-yl)ethanone]	100 to 1000
O=S1(=O)CCC(Nc2nc(Nc3ccc(N4CCNCC4)cc3)nc3[nH]ccc23)C1 (stereo not shown) [Example 100B, N2-(4-(piperazin-1-yl)phenyl)-N4-(1,1-dioxy-tetrahydrothiophen-3-yl)-7H-pyrrolo[2,3-d]pyrimidine-2,4-diamine]	> 1000

same assay, conditions: Table 4; 1 nM SYK, 100 μM ATP; read-out: syk IC50

SMILES	IC50 [nM]
N[C@H]1CCCN(c2nc(Nc3ccc4cn[nH]c4c3)nc3[nH]ccc23)C1 [(S)-4-(3-aminopiperidin-1-yl)-N-(1H-indazol-6-yl)-7H-pyrrolo[2,3-d]pyrimidin-2-amine]	100 to 1000
CC(=O)N1CCN(c2ccc(Nc3ncc(C(N)=O)c(N4CCCN(CCO)CC4)n3)cc2)CC1 [2-(4-(4-acetylpiperazin-1-yl)phenylamino)-4-(4-(2-hydroxyethyl)-1,4-diazepan-1-yl)pyrimidine-5-carboxamide]	100 to 1000
CC(C)(C)OC(=O)NCC1CCN(c2nc(Nc3ccc(C(N)=O)cc3)ncc2F)CC1 [Example 30, tert-butyl (1-(2-(4-carbamoylphenylamino)-5-fluoropyrimidin-4-yl)piperidin-4-yl)methylcarbamate]	> 1000
O[C@H]1CCN(c2nc(Nc3ccc(N4CCNCC4)cc3)nc3[nH]ccc23)C1 [Example 12, (S)-1-(2-(4-(piperazin-1-yl)phenylamino)-7H-pyrrolo[2,3-d]pyrimidin-4-yl)pyrrolidin-3-ol]	> 1000
